Measured values from US20250213581A1, “COMBINATION THERAPY OF A PI3K INHIBITOR AND KRAS INHIBITOR AND METHODS OF USE THEREOF” (Totus Medicines Inc., priority 2022, published 2025).
pIC50: −log10 of the molar value.

Columns and labels:
Assay in all cases: Cell proliferation assay (CellTiter-Glo, 3 days), single agent
Type in all cases: cell-based
Conditions in all cases: 3 days treatment; read-out: Absolute IC50
Calu-1 (Lung) = test system: Calu-1 (Lung)
Method: (§1) Two duplicate plates were set up.
(§2) At day 0, 10 μL culture medium to each well for T0 reading. […] Compound I was diluted and 10 μL of each 10× compound I from working solutions for a concentration ranging from 10 μM to about 0.005 μM. Cisplatin was diluted to about 3.33 mM to about 150 nM.
(§3) IC50's were determined for each cell line.

NCI-H1792 (Lung) = test system: NCI-H1792 (Lung)
Method: as §1, §2, §3

UM-UC-3 (bladder) = test system: UM-UC-3 (bladder)
Method: as §1, §2, §3

KYSE-410 (HN/Esophagus) = test system: KYSE-410 (HN/Esophagus)
Method: as §1, §2, §3

SW756 (Cervix) = test system: SW756 (Cervix)
Method: as §1, §2, §3

NCI-H23 (Lung) = test system: NCI-H23 (Lung)
Method: as §1, §2, §3

MIA PaCa-2 (Pancreas) = test system: MIA PaCa-2 (Pancreas)
Method: as §1, §2, §3

SW1463 (rectum) = test system: SW1463 (rectum)
Method: as §1, §2, §3

NCI-H358 (Lung) = test system: NCI-H358 (Lung)
Method: as §1, §2, §3

HCC44 (Lung) = test system: HCC44 (Lung)
Method: as §1, §2, §3

SW837 (Rectum) = test system: SW837 (Rectum)
Method: as §1, §2, §3

NCI-H2122 (Lung) = test system: NCI-H2122 (Lung)
Method: as §1, §2, §3

NCI-H1373 (Lung) = test system: NCI-H1373 (Lung)
Method: as §1, §2, §3

N.N.[Cl][Pt][Cl] [Cisplatin, reference compound]
pIC50 (Calu-1 (Lung)): 4.99
pIC50 (NCI-H1792 (Lung)): 5.31
pIC50 (UM-UC-3 (bladder)): 5.73
pIC50 (KYSE-410 (HN/Esophagus)): 4.80
pIC50 (SW756 (Cervix)): 4.99
pIC50 (NCI-H23 (Lung)): 5.45
pIC50 (MIA PaCa-2 (Pancreas)): 5.15
pIC50 (SW1463 (rectum)): 4.91
pIC50 (NCI-H358 (Lung)): 4.90
pIC50 (HCC44 (Lung)): 5.10
pIC50 (SW837 (Rectum)): 4.37
pIC50 (NCI-H2122 (Lung)): 4.75
pIC50 (NCI-H1373 (Lung)): 5.06
